Results: patent publication US20190330275A1 (priority 2016, published 2019)
Values joined by “and” are separate entries in the source; they are usually repeats but may differ in a detail not shown here. Equal entries are not always repeated. Peptide text beside a SMILES is read from it.

Legend:
rat α6/α3β4 nAChR = rat α6/α3β4 nAChR (Rattus norvegicus, UniProt P04757+P12392+P43143); assay: cell-based
rat α3β4 nAChR = rat α3β4 nAChR (Rattus norvegicus, UniProt P04757+P12392); assay: cell-based; conditions: for IC50: α3β4 IC50 (half-blocking dose)
rat α3β4 nAChR, sequence (P04757 26-499 limits assumed): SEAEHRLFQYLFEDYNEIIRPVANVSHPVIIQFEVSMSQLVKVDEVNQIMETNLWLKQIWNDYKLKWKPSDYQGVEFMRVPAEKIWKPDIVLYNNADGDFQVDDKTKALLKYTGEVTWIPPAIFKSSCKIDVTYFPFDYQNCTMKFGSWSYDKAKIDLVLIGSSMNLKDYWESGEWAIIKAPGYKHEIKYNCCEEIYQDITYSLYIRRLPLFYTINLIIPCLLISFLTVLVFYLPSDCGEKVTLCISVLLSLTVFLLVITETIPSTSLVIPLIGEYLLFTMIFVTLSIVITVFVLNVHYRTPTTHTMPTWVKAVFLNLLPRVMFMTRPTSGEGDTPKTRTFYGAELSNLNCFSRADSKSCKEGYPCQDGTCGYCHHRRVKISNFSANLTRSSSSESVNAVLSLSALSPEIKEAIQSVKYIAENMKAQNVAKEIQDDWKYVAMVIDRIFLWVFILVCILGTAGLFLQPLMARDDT
rat α3β4 nAChR, sequence (P12392 21-495 limits assumed): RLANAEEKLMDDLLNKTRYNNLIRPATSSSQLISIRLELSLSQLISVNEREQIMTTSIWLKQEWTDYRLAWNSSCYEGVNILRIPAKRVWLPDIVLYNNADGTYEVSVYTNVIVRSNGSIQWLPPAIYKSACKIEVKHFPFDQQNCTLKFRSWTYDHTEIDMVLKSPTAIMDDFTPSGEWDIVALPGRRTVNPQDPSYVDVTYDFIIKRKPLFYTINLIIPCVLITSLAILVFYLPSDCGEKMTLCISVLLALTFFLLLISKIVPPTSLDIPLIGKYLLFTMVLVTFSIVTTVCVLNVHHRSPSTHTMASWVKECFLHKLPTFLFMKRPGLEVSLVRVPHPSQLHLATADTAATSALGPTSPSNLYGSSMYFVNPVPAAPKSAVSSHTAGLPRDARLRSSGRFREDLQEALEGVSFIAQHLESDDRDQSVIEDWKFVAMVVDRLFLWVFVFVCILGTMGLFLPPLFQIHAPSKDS

[1] = α6/α3β4 IC50 (half-blocking dose)

rat α6/α3β4 nAChR, sequence (P04757 whole entry, looked up): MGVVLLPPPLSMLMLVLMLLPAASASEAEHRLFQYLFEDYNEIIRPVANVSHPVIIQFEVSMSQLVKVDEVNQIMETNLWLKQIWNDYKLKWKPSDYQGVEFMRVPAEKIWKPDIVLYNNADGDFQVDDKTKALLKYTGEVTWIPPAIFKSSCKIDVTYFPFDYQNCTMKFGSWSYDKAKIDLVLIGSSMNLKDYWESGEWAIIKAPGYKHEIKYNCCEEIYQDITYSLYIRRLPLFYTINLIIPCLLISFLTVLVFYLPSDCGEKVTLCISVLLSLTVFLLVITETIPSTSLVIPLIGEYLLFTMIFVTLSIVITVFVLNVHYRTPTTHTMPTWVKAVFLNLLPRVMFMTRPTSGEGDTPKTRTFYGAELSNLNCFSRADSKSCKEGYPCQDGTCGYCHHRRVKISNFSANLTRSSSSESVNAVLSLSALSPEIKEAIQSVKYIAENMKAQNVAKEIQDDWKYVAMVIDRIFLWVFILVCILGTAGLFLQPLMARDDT
rat α6/α3β4 nAChR, sequence (P12392 whole entry, looked up): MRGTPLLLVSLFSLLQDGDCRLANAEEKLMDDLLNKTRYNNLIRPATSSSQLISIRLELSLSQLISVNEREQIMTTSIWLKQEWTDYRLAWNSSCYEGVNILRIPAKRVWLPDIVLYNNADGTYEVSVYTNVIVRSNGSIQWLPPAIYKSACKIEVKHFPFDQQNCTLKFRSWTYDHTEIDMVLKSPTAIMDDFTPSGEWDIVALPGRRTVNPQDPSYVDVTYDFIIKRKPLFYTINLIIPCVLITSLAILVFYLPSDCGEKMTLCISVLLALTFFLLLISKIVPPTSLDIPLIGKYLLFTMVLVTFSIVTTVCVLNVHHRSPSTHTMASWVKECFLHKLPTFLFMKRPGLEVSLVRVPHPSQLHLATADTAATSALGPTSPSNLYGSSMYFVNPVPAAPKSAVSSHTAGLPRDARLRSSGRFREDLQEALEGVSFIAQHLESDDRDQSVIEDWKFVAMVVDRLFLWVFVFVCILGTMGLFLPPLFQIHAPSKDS
rat α6/α3β4 nAChR, sequence (P43143 whole entry, looked up): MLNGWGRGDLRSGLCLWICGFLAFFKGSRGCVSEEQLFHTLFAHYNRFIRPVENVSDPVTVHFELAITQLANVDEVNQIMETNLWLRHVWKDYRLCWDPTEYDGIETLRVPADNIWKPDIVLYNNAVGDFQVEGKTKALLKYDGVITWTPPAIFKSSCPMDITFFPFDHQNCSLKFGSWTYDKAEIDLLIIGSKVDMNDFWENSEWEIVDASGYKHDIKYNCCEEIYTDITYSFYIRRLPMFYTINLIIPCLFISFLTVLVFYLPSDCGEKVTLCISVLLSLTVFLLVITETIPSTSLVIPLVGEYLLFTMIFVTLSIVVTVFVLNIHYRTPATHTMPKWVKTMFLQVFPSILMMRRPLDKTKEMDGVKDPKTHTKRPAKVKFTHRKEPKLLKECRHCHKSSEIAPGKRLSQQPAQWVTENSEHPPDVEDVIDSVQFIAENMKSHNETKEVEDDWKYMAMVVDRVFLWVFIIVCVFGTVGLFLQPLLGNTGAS

SMILES	binding (blocking) activity to α6/α3β4 nAChR compared with wild type TxID (rat α6/α3β4 nAChR)	α6/α3β4 IC50 ratio (rat α6/α3β4 nAChR)	IC50 (rat α6/α3β4 nAChR; [1])	IC50 (rat α3β4 nAChR)	IC50 ratio of α6/α3β4 vs. α3β4 (Discrimination) (rat α6/α3β4 nAChR)	α3β4 IC50 ratio (rat α3β4 nAChR)	binding (blocking) activity to α3β4 nAChR compared with wild type TxID (rat α3β4 nAChR)	also measured
CC[C@H](C)[C@@H]1NC(=O)[C@H](C)NC(=O)[C@H](CO)NC(=O)[C@@H]2CSSC[C@H](NC(=O)CN)C(=O)N[C@@H](CSSC[C@@H](C(N)=O)NC(=O)[C@H]([C@@H](C)CC)NC(=O)[C@@H]3CCCN3C(=O)[C@H](CO)NC1=O)C(=O)N[C@@H](CO)C(=O)N[C@@H](Cc1c[nH]cn1)C(=O)N1CCC[C@H]1C(=O)N[C@@H](C(C)C)C(=O)N2 [TxID[M11I]] (HELM PEPTIDE1{G.C.C.S.H.P.V.C.S.A.I.S.P.I.C.[am]}$PEPTIDE1,PEPTIDE1,2:R3-8:R3|PEPTIDE1,PEPTIDE1,3:R3-15:R3$$$V2.0)	not a decrease	–	–	–	–	–	–	–
CC[C@H](C)[C@@H]1NC(=O)[C@@H]2CCCN2C(=O)[C@H](CO)NC(=O)[C@H](Cc2c[nH]cn2)NC(=O)[C@H](C)NC(=O)[C@H](CO)NC(=O)[C@@H]2CSSC[C@H](NC(=O)CN)C(=O)N[C@@H](CSSC[C@@H](C(N)=O)NC1=O)C(=O)N[C@@H](CO)C(=O)N[C@@H](Cc1c[nH]cn1)C(=O)N1CCC[C@H]1C(=O)N[C@@H](C(C)C)C(=O)N2 [TxID[M11H]] (HELM PEPTIDE1{G.C.C.S.H.P.V.C.S.A.H.S.P.I.C.[am]}$PEPTIDE1,PEPTIDE1,2:R3-8:R3|PEPTIDE1,PEPTIDE1,3:R3-15:R3$$$V2.0)	–	103	3490 nM	> 10000 nM	–	–	–	IC50 (rat α6/α3β4 nAChR; α6/α3β4 IC50): 1000 to 10000 nM; blocking effect on the current of rat α3β4 nAChRs (rat α3β4 nAChR): no blocking effects
CC[C@H](C)[C@@H]1NC(=O)[C@H](Cc2c[nH]cn2)NC(=O)[C@@H]2CCCN2C(=O)[C@H](CO)NC(=O)[C@H](CCSC)NC(=O)[C@H](C)NC(=O)[C@H](CO)NC(=O)[C@@H]2CSSC[C@H](NC(=O)CN)C(=O)N[C@@H](CSSC[C@@H](C(N)=O)NC1=O)C(=O)N[C@@H](CO)C(=O)N[C@@H](Cc1c[nH]cn1)C(=O)N1CCC[C@H]1C(=O)N[C@@H](C(C)C)C(=O)N2 [TxID[14H]] (HELM PEPTIDE1{G.C.C.S.H.P.V.C.S.A.M.S.P.H.I.C.[am]}$PEPTIDE1,PEPTIDE1,2:R3-8:R3|PEPTIDE1,PEPTIDE1,3:R3-16:R3$$$V2.0)	–	9.2	312 nM	33 nM	9.5	9.2	–	–
CC[C@@H]1NC(=O)[C@@H]2CSSC[C@H](NC(=O)CN)C(=O)N[C@@H](CSSC[C@@H](C(N)=O)NC(=O)[C@H]([C@@H](C)CC)NC(=O)[C@@H]3CCCN3C(=O)[C@H](CO)NC(=O)[C@H](CCSC)NC(=O)[C@H](C)NC1=O)C(=O)N[C@@H](CO)C(=O)N[C@@H](Cc1c[nH]cn1)C(=O)N1CCC[C@H]1C(=O)N[C@@H](C(C)C)C(=O)N2 [TxID[S9Abu], GCCSHPVCBAMSPIC*] (HELM PEPTIDE1{G.C.C.S.H.P.V.C.[Abu].A.M.S.P.I.C.[am]}$PEPTIDE1,PEPTIDE1,2:R3-8:R3|PEPTIDE1,PEPTIDE1,3:R3-15:R3$$$V2.0)	not significantly different from the activity of the wild type TxID	–	–	–	–	–	not significantly different from the activity of the wild type TxID	elution after blocking the α3β4 nAChR current (rat α3β4 nAChR): very slow
CC[C@H](C)[C@@H]1NC(=O)[C@@H]2CCCN2C(=O)[C@H](CO)NC(=O)[C@H](CCSC)NC(=O)[C@H](C)NC(=O)[C@H](CO)NC(=O)[C@@H]2CSSC[C@H](NC(=O)CN)C(=O)N[C@@H](CSSC[C@@H](C(N)=O)NC1=O)C(=O)N[C@@H](CO)C(=O)N[C@@H](Cc1c[nH]cn1)C(=O)N1CCC[C@H]1C(=O)N[C@@H](C(C)C)C(=O)N2 [TxID, reference compound]	–	–	–	–	–	–	–	current blocked (rat α6/α3β4 nAChR): 85% and 46%; discrimination degree between α3β4 and α6β4* nAChRs (rat α6/α3β4 nAChR): 9.3 times; blocking of rat α3β4 nAChRs current (rat α3β4 nAChR): strong blocking activities; current blocked (rat α3β4 nAChR): 97% and 67%; elution time for current to return to the level of control current (rat α3β4 nAChR): ≤ 2 min
CSCC[C@@H]1NC(=O)[C@H](C)NC(=O)[C@H](CO)NC(=O)[C@@H]2CSSC[C@H](NC(=O)CN)C(=O)N[C@@H](CSSC[C@@H](C(N)=O)NC(=O)[C@H](CCCNC(=N)N)NC(=O)[C@@H]3CCCN3C(=O)[C@H](CO)NC1=O)C(=O)N[C@@H](CO)C(=O)N[C@@H](Cc1c[nH]cn1)C(=O)N1CCC[C@H]1C(=O)N[C@@H](C(C)C)C(=O)N2 [TxID[I14R]] (HELM PEPTIDE1{G.C.C.S.H.P.V.C.S.A.M.S.P.R.C.[am]}$PEPTIDE1,PEPTIDE1,2:R3-8:R3|PEPTIDE1,PEPTIDE1,3:R3-15:R3$$$V2.0)	–	2.0	67.4 nM	9.2 nM	7.3	2.5	–	–
CC[C@H](C)[C@@H]1NC(=O)[C@@H]2CCCN2C(=O)[C@H](CO)NC(=O)[C@H](CCSC)NC(=O)[C@H](C)NC(=O)[C@H](Cc2ccccc2)NC(=O)[C@@H]2CSSC[C@H](NC(=O)CN)C(=O)N[C@@H](CSSC[C@@H](C(N)=O)NC1=O)C(=O)N[C@@H](CO)C(=O)N[C@@H](Cc1c[nH]cn1)C(=O)N1CCC[C@H]1C(=O)N[C@@H](C(C)C)C(=O)N2 [TxID[S9F]] (HELM PEPTIDE1{G.C.C.S.H.P.V.C.F.A.M.S.P.I.C.[am]}$PEPTIDE1,PEPTIDE1,2:R3-8:R3|PEPTIDE1,PEPTIDE1,3:R3-15:R3$$$V2.0)	not significantly different from the activity of the wild type TxID	0.2	–	–	0.5	3.8	not significantly different from the activity of the wild type TxID	elution rate after blocking α6/α3β4 nAChR current (rat α6/α3β4 nAChR): significantly slower than those of other polypeptides; elution after blocking the α3β4 nAChR current (rat α3β4 nAChR): very slow
CC[C@H](C)[C@@H]1NC(=O)[C@@H]2CCCN2C(=O)[C@H](CO)NC(=O)[C@H](CCSC)NC(=O)[C@H](C)NC(=O)[C@H](Cc2c[nH]cn2)NC(=O)[C@@H]2CSSC[C@H](NC(=O)CN)C(=O)N[C@@H](CSSC[C@@H](C(N)=O)NC1=O)C(=O)N[C@@H](CO)C(=O)N[C@@H](Cc1c[nH]cn1)C(=O)N1CCC[C@H]1C(=O)N[C@@H](C(C)C)C(=O)N2 [TxID[S9H]] (HELM PEPTIDE1{G.C.C.S.H.P.V.C.H.A.M.S.P.I.C.[am]}$PEPTIDE1,PEPTIDE1,2:R3-8:R3|PEPTIDE1,PEPTIDE1,3:R3-15:R3$$$V2.0)	not significantly different from the activity of the wild type TxID	0.4	–	–	5.6	0.7	not significantly different from the activity of the wild type TxID	blocking of rat α3β4 nAChRs current (rat α3β4 nAChR): strong blocking activities; current after 2 min of elution (rat α3β4 nAChR): ~0 nA; elution after blocking the α3β4 nAChR current (rat α3β4 nAChR): very slow
CSCC[C@@H]1NC(=O)[C@H](C)NC(=O)[C@H](CO)NC(=O)[C@@H]2CSSC[C@H](NC(=O)CN)C(=O)N[C@@H](CSSC[C@@H](C(N)=O)NC(=O)[C@H](CC(C)C)NC(=O)[C@@H]3CCCN3C(=O)[C@H](CO)NC1=O)C(=O)N[C@@H](CO)C(=O)N[C@@H](Cc1c[nH]cn1)C(=O)N1CCC[C@H]1C(=O)N[C@@H](C(C)C)C(=O)N2 [TxID[I14L]] (HELM PEPTIDE1{G.C.C.S.H.P.V.C.S.A.M.S.P.L.C.[am]}$PEPTIDE1,PEPTIDE1,2:R3-8:R3|PEPTIDE1,PEPTIDE1,3:R3-15:R3$$$V2.0)	–	0.9	29 nM	9.98 nM	2.9	2.8	–	–
CC[C@H](C)[C@@H]1NC(=O)[C@@H]2CCCN2C(=O)[C@H](CO)NC(=O)[C@H](CCSC)NC(=O)[C@H](C)NC(=O)[C@H](CO)NC(=O)[C@@H]2CSSC[C@H](NC(=O)[C@H](C)N)C(=O)N[C@@H](CSSC[C@@H](C(N)=O)NC1=O)C(=O)N[C@@H](CO)C(=O)N[C@@H](Cc1c[nH]cn1)C(=O)N1CCC[C@H]1C(=O)N[C@@H](C(C)C)C(=O)N2 [TxID[G1A]] (HELM PEPTIDE1{A.C.C.S.H.P.V.C.S.A.M.S.P.I.C.[am]}$PEPTIDE1,PEPTIDE1,2:R3-8:R3|PEPTIDE1,PEPTIDE1,3:R3-15:R3$$$V2.0)	–	–	100 to 1000 nM	–	–	–	–	–
CC[C@H](C)[C@@H]1NC(=O)[C@@H]2CCCN2C(=O)[C@H](CO)NC(=O)[C@H](CCSC)NC(=O)[C@H](C)NC(=O)[C@H](C)NC(=O)[C@@H]2CSSC[C@H](NC(=O)CN)C(=O)N[C@@H](CSSC[C@@H](C(N)=O)NC1=O)C(=O)N[C@@H](CO)C(=O)N[C@@H](Cc1c[nH]cn1)C(=O)N1CCC[C@H]1C(=O)N[C@@H](C(C)C)C(=O)N2 [TxID[S9A]] (HELM PEPTIDE1{G.C.C.S.H.P.V.C.A.A.M.S.P.I.C.[am]}$PEPTIDE1,PEPTIDE1,2:R3-8:R3|PEPTIDE1,PEPTIDE1,3:R3-15:R3$$$V2.0)	–	–	–	–	–	–	no effect on the blocking activity	blocking activity to α6β4* nAChRs subtype (rat α6/α3β4 nAChR): completely lost the blocking activity; current blocked (rat α6/α3β4 nAChR): 26%; current blocked (rat α3β4 nAChR): 98% and 75%
CC[C@H](C)[C@@H]1NC(=O)[C@H](C)NC(=O)[C@H](CO)NC(=O)[C@H](CCSC)NC(=O)[C@H](C)NC(=O)[C@H](CO)NC(=O)[C@@H]2CSSC[C@H](NC(=O)CN)C(=O)N[C@@H](CSSC[C@@H](C(N)=O)NC1=O)C(=O)N[C@@H](CO)C(=O)N[C@@H](Cc1c[nH]cn1)C(=O)N1CCC[C@H]1C(=O)N[C@@H](C(C)C)C(=O)N2 [TxID[P13A]] (HELM PEPTIDE1{G.C.C.S.H.P.V.C.S.A.M.S.A.I.C.[am]}$PEPTIDE1,PEPTIDE1,2:R3-8:R3|PEPTIDE1,PEPTIDE1,3:R3-15:R3$$$V2.0)	–	–	> 10000 nM	> 10000 nM	–	–	–	–
CC[C@H](C)[C@@H]1NC(=O)[C@@H]2CCCN2C(=O)[C@H](CO)NC(=O)[C@H](CCSC)NC(=O)[C@H](C)NC(=O)[C@H](CC(=O)O)NC(=O)[C@@H]2CSSC[C@H](NC(=O)CN)C(=O)N[C@@H](CSSC[C@@H](C(N)=O)NC1=O)C(=O)N[C@@H](CO)C(=O)N[C@@H](Cc1c[nH]cn1)C(=O)N1CCC[C@H]1C(=O)N[C@@H](C(C)C)C(=O)N2 [TxID[S9D]] (HELM PEPTIDE1{G.C.C.S.H.P.V.C.D.A.M.S.P.I.C.[am]}$PEPTIDE1,PEPTIDE1,2:R3-8:R3|PEPTIDE1,PEPTIDE1,3:R3-15:R3$$$V2.0)	–	–	–	–	–	–	–	blocking effect on the current of rat α6/α3β4 nAChRs (rat α6/α3β4 nAChR): no blocking effect
